Measured values published in publication PMC5650142, “GPR40 partial agonists and AgoPAMs: Differentiating effects on glucose and hormonal secretions in the rodent” (PLoS ONE, 2017).
Several values for one entry are separate records, joined by “and”; a condition that tells them apart may be missing. Identical values can stand only once.

Test system: GK rats
Test: GK rat chronic efficacy (28 days: glucose, food intake, body weight, GLP-1, GIP, PYY, insulin, glucagon)
Assay type: in vivo
Parameters: Food Intake Over Time (Fig 3C) / Total Body Weight Change Over Time / Active GLP-1 Levels Over Time: unit not given here
Conditions: for Total Body Weight Change Over Time / Active GLP-1 Levels Over Time / GIP Levels Over Time / PYY Levels Over Time / Plasma Insulin Over Time: GK rats; for GIP Levels Over Time / PYY Levels Over Time: in pg/mL (unit assumed)
In short: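 Daily oral gavage for 28 days, AP1 or AP3 at 30 mg/kg in 0.5% methylcellulose; MK-8666 at 30 mg/kg in feed. Fed glucose, food intake and weight on days 10, 17, 23, 28; glucose, GLP-1, GIP, PYY after 6 h fast, 1 h post dose. Hormones by MSD immunoassay or bead panel.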

## Cc1cc(OCCCS(C)(=O)=O)cc(C)c1-c1cccc(COc2cc3c(cn2)[C@H]2[C@@H](C3)[C@@H]2C(=O)O)c1 [MK-8666]
30 mpk, Day 0, individual animals
  Glucose Over time (S2 File, Fig 2A): 167 mg/dL and 165 mg/dL and 192 mg/dL and 168 mg/dL and 160 mg/dL and 197 mg/dL and 172 mg/dL and 183 mg/dL and 169 mg/dL and 161 mg/dL
30 mpk, Day 10
  Food Intake Over Time (Fig 3C): 20.6389 and 19.3556 and 19.3778 and 21 and 18.9
30 mpk, Day 10, individual animals
  Glucose Over time (S2 File, Fig 2A): 128 mg/dl and 123 mg/dl and 142 mg/dl and 120 mg/dl and 139 mg/dl (2×) and 127 mg/dl and 130 mg/dl and 140 mg/dl and 115 mg/dl
30 mpk, Day 17
  Food Intake Over Time (Fig 3C): 18.0071 and 18.5429 and 17.1786 and 18.0357 and 16.8714
30 mpk, Day 17, individual animals
  Glucose Over time (S2 File, Fig 2A): 130 mg/dL and 155 mg/dL and 159 mg/dL and 140 mg/dL and 132 mg/dL and 137 mg/dL and 120 mg/dL and 138 mg/dL and 110 mg/dL and 102 mg/dL
30 mpk, Day 23
  Food Intake Over Time (Fig 3C): 18.6833 and 18.8833 and 18.4167 and 19.5083 and 18.1917
30 mpk, Day 23, individual animals
  Glucose Over time (S2 File, Fig 2A): 129 mg/dL and 132 mg/dL and 148 mg/dL and 138 mg/dL and 131 mg/dL and 124 mg/dL and 143 mg/dL and 144 mg/dL and 119 mg/dL and 122 mg/dL
30 mpk, Day 28
  Food Intake Over Time (Fig 3C): 18.66 and 18.67 and 17.38 and 21.2 and 17.95
30 mpk, Day 28, individual animals
  Glucose Over time (S2 File, Fig 2A): 130 mg/dL and 128 mg/dL and 147 mg/dL and 122 mg/dL and 143 mg/dL and 136 mg/dL and 123 mg/dL and 135 mg/dL and 131 mg/dL and 116 mg/dL
30 mpk, day 28, fasted, individual animals
  Fasted glucose on day 28 (Fig 3B): 119 and 118 and 107 and 100 and 94 and 104 and 124 and 102 and 96 and 105
30 mpk, day 28, fed, individual animals
  Fed glucose on day 28 (Fig 3B): 123 and 135 and 131 and 116 and 130 and 128 and 147 and 122 and 143 and 136
GK rat, 30 mg/kg, 4 weeks of treatment
  gut hormones (total and active GLP-1, GIP, PYY): no effect
GK rat, 30 mg/kg, 28 days
  Plasma Glucagon: trend of increasing glucagon on day 28
  body weight: no effect
GK rat, 30 mg/kg, 28 days, days 10–28
  fed blood glucose vs vehicle controls: significant effect on day 28 only
30 mpk, Day 0, individual animals (Fig 3D)
  Total Body Weight Change Over Time: 0
30 mpk, Day 0, individual animals (Fig 4B), 30 mg/kg
  Active GLP-1 Levels Over Time: 1.901 and 1.26 and 2.116 and 3.51 and 2.184 and 0.8674 and 1.257 and 2.71 and 1.494 and 1.111
30 mpk, Day 0, individual animals (Fig 4C), 30 mg/kg
  GIP Levels Over Time: 12.65 and 5.7 and 68.06 and 68.73 and 44.75 and 71.88 and 53.28 and 113.97 and 32.85 and 33.08
30 mpk, Day 0, individual animals (Fig 4D), 30 mg/kg
  PYY Levels Over Time: 104.9 and 81.92 and 88.3 and 95.99 and 52.32 and 50.41 and 79.99 and 158.3 and 57.72 and 25.52
30 mpk, Day 0, individual animals (Fig 5A), 30 mg/kg
  Plasma Insulin Over Time: 0.7825 ng/mL and 1.015 ng/mL and 2.348 ng/mL and 1.621 ng/mL and 2.16 ng/mL and 2.5584 ng/mL and 2.141 ng/mL and 1.201 ng/mL and 2.632 ng/mL and 2.493 ng/mL
30 mpk, Day 10, individual animals (Fig 3D), 30 mg/kg
  Total Body Weight Change Over Time: 20 and 26 and 18 and 13 and 22 and 3 and 11 and 21 and 12 and 4
30 mpk, Day 10, individual animals (Fig 4B), 30 mg/kg
  Active GLP-1 Levels Over Time: 1.599 and 1.212 and 2.275 and 1.828 and 2.945 and 2.154 and 1.327 and 1.669 and 1.343 and 1.536
30 mpk, Day 10, individual animals (Fig 4C), 30 mg/kg
  GIP Levels Over Time: 39.32 and 74.04 and 79.4 and 80.59 and 90.86 and 47.57 and 50.25 and 47.43 and 58.38 and 34.5
30 mpk, Day 10, individual animals (Fig 4D), 30 mg/kg
  PYY Levels Over Time: 68.18 and 84.22 and 84.94 and 98.89 and 97.3 and 93.71 and 80.17 and 75.96 and 87.42 and 74.37
30 mpk, Day 10, individual animals (Fig 5A), 30 mg/kg
  Plasma Insulin Over Time: 1.605 ng/mL and 1.432 ng/mL and 1.588 ng/mL and 2.061 ng/mL and 1.507 ng/mL and 2.521 ng/mL and 2.104 ng/mL and 0.5711 ng/mL and 1.866 ng/mL and 2.359 ng/mL
30 mpk, Day 17, individual animals (Fig 3D), 30 mg/kg
  Total Body Weight Change Over Time: 34 (2×) and 41 and 29 and 32 (2×) and 11 and 22 (2×) and 9
30 mpk, Day 17, individual animals (Fig 4B), 30 mg/kg
  Active GLP-1 Levels Over Time: 0.86 and 0.3 and 1.09 and 0.6 and 0.76 and 1.16 and 0.79 and 0.57 (2×) and 1.44
30 mpk, Day 17, individual animals (Fig 4C), 30 mg/kg
  GIP Levels Over Time: 72.64 and 104.54 and 131.52 and 71.84 and 86.95 and 58.88 and 85.41 and 17.08 and 86.39 and 75.71
30 mpk, Day 17, individual animals (Fig 4D), 30 mg/kg
  PYY Levels Over Time: 84.67 and 106.51 and 99.04 and 75.86 and 81.98 and 124.9 and 74.42 and 49.36 and 77.72 and 64.96
30 mpk, Day 17, individual animals (Fig 5A), 30 mg/kg
  Plasma Insulin Over Time: 2.096 ng/mL and 1.971 ng/mL and 2.299 ng/mL and 1.835 ng/mL and 1.8388 ng/mL and 1.142 ng/mL and 2.593 ng/mL and 0.8411 ng/mL and 2.087 ng/mL and 1.846 ng/mL
30 mpk, Day 23, individual animals (Fig 3D), 30 mg/kg
  Total Body Weight Change Over Time: 40 and 50 and 44 and 31 (2×) and 12 and 29 and 38 and 27 and 17
30 mpk, Day 28, individual animals (Fig 3D), 30 mg/kg
  Total Body Weight Change Over Time: 42 (2×) and 59 and 53 and 39 and 16 and 38 and 47 and 36 and 23
30 mpk, Day 28, individual animals (Fig 4B), 30 mg/kg
  Active GLP-1 Levels Over Time: 1.155 and 1.013 and 1.22 and 0.9448 and 0.9241 and 0.9389 and 0.7791 and 1.439 and 1.063 and 0.9152
30 mpk, Day 28, individual animals (Fig 4C), 30 mg/kg
  GIP Levels Over Time: 17.53 and 7.25 and 46.24 and 76.52 and 12.03 and 22.4 and 15.13 and 16.8 and 5.84
30 mpk, Day 28, individual animals (Fig 4D), 30 mg/kg
  PYY Levels Over Time: 66.63 and 94.86 and 108.27 and 72.37 and 63.96 and 49.91 and 49.72 and 83.74 and 62.98 and 45.13
30 mpk, Day 28, individual animals (Fig 5A), 30 mg/kg
  Plasma Insulin Over Time: 1.012 ng/mL and 1.26 ng/mL and 1.45 ng/mL and 2.851 ng/mL and 1.138 ng/mL and 1.638 ng/mL and 1.554 ng/mL and 1.1554 ng/mL and 1.58 ng/mL and 1.305 ng/mL
